Assay results taken from the NIST ThermoML archive (doi:10.1016/j.fluid.2016.05.004).
± gives the expanded uncertainty stated by the source.

Details: Liquid, Closed cell (Static) method

SMILES | vapor or sublimation pressure (233.17 K) | vapor or sublimation pressure (243.23 K) | vapor or sublimation pressure (253.14 K) | vapor or sublimation pressure (263.2 K) | vapor or sublimation pressure (273.19 K) | vapor or sublimation pressure (243.24 K) | vapor or sublimation pressure (253.22 K) | vapor or sublimation pressure (263.24 K) | vapor or sublimation pressure (273.18 K) | vapor or sublimation pressure (233.19 K) | vapor or sublimation pressure (243.22 K) | vapor or sublimation pressure (253.21 K) | vapor or sublimation pressure (263.21 K)
FC(F)=C(F)C(F)(F)F [hexafluoropropene] | 64 ± 10 kPa | 102 ± 10 kPa | 157 ± 10 kPa | 233 ± 10 kPa | 334 ± 10 kPa |  |  |  |  |  |  |  | 
FC(F)(F)C1(F)OC1(F)F (stereo not given) [2,2,3-trifluoro-3-(trifluoromethyl)oxirane] | 58 ± 10 kPa |  |  |  |  | 95 ± 10 kPa | 145 ± 10 kPa | 216 ± 10 kPa | 310 ± 10 kPa |  |  |  | 
O=C=O [carbon dioxide] |  |  |  |  | 3473 ± 16 kPa |  |  |  |  | 1009 ± 12 kPa | 1432 ± 12 kPa | 1970 ± 13 kPa | 2645 ± 15 kPa
